Data reported in US20070082877A1, “Difluoromethylbenzanilides and use thereof for combating micro-organisms, intermediate products and use thereof” (BAYER CORPSCIENCE AKTIENGESELLSCHAFT, priority 2003, published 2007).

Assay: log P determination by HPLC on reversed-phase column (C 18), EEC directive 79/831 Annex V.A8
Format: physicochemical
Details: reversed-phase HPLC column (C 18), acidic range pH 2.3, 43° C.
Description: The given log P values were determined in accordance with EEC directive 79/831 Annex V.A8 by HPLC (High Performance Liquid Chromatography) on a reversed-phase column (C 18). Temperature: 43° C. Mobile phases for the determination in the acidic range (pH 2.3): 0.1% aqueous phosphoric acid, acetonitrile; linear gradient from 10% acetonitrile to 90% acetonitrile. Calibration was carried out using unbranched alkan-2-ones (having 3 to 6 carbon atoms) with known log P values (determination of the log P values by the retention times using linear interpolation between two successive alkanones).

Work on `CC(CC(C)(C)C)c1ccccc1NC(=O)c1ccccc1C(F)F` (stereo not shown) [No. 1, 2-difluoromethyl-N-[2-(1,3,3-trimethylbutyl)phenyl]benzamide] yielded a chromatographic logP of 4.38.
